In ChEMBL document CHEMBL1151340, “Antimicrobial agents from higher plants. Antimicrobial isoflavanoids and related substances from Glycyrrhiza glabra L. var. typica” (1980) one finds Activity and MIC data, which are given here for eleven compounds.

Values after ≈ are worked out from the molar mass of the structure shown. Active and inactive are the calls of the source. No cut-off for these calls is given here.

The subject of assay [1] is Salmonella enterica subsp. enterica serovar Gallinarum. Nature of the assay: Antibacterial activity against Salmonella gallinarum ATCC 9184 at 100 mcg/ml by agar-dilution streak method. In kind it is functional, organism-based.
In assay [2] the test system is Candida albicans. Nature of the assay: Antifungal activity against Candida albicans ATCC 10231 at 100 mcg/ml by agar-dilution streak method. Format: functional, organism-based.
The subject of assay [3] is Klebsiella pneumoniae. Nature of the assay: Antibacterial activity against Klebsiella pneumoniae ATCC 10031 at 100 mcg/ml by agar-dilution streak method. In kind it is functional, organism-based.
Assay [4] concerns Mycolicibacterium smegmatis. Put plainly: Antibacterial activity against Mycobacterium smegmatis ATCC 607 by agar-dilution streak method. Format: functional.
Assay [5] has as its system Escherichia coli. Nature of the assay: Antibacterial activity against Escherichia coli ATCC 9637 at 100 mcg/ml by agar-dilution streak method. Format: functional, organism-based.
For assay [6], the system named is Staphylococcus aureus. Nature of the assay: Antibacterial activity against Staphylococcus aureus ATCC 13709 by agar-dilution streak method. Format: functional.
Assay [7] concerns Mycolicibacterium smegmatis. Nature of the assay: Antibacterial activity against Mycobacterium smegmatis ATCC 607 at 100 mcg/ml by agar-dilution streak method. In kind it is functional.
In assay [8] the test system is Staphylococcus aureus. Nature of the assay: Antibacterial activity against Staphylococcus aureus ATCC 13709 at 100 mcg/ml by agar-dilution streak method. In kind it is functional, organism-based.
The test system of assay [9] is Escherichia coli. Nature of the assay: Antibacterial activity against Escherichia coli ATCC 9637 by agar-dilution streak method. In kind it is functional.
The test system of assay [10] is Candida albicans. Nature of the assay: Antifungal activity against Candida albicans ATCC 10231 by agar-dilution streak method. Format: functional.
The subject of assay [11] is Salmonella enterica subsp. enterica serovar Gallinarum. Put plainly: Antibacterial activity against Salmonella gallinarum ATCC 9184 by agar-dilution streak method. Format: functional.
Assay [12] deals with Klebsiella pneumoniae. Nature of the assay: Antibacterial activity against Klebsiella pneumoniae ATCC 10031 by agar-dilution streak method. Format: functional.

For the compound `CC(C)=CCc1cc([C@H]2Oc3c(ccc(O)c3CC=C(C)C)C(=O)[C@@H]2O)ccc1O`, the result in assay [1], in [2], in [3] and in assay [5] was inactive. For the same compound, the MIC in assay [4] and in assay [6] was 6.25 µg/mL (≈ 15.3 µM) in each case.

Turning to `COc1c(O)ccc([C@@H]2COc3c(ccc4c3C=CC(C)(C)O4)C2)c1O`, the result in [1], in assay [2], in assay [3], in [5] and in [7] was inactive. For the same compound, 50 µg/mL (≈ 141 µM) was the least that counted as inhibitory in assay [6] (MIC).

As to `COc1ccc([C@@H]2COc3c(ccc4c3C=CC(C)(C)O4)C2)c(O)c1`, the outcome in assay [1], in assay [2], in assay [3] and in assay [5] was inactive. Also, the results for the MIC in assay [4] and in [6] were 3.12 µg/mL (≈ 9.22 µM) and 6.25 µg/mL (≈ 18.5 µM), respectively.

`COc1ccc(-c2coc3cc(O)ccc3c2=O)cc1`: the result in assay [1], in [2], in assay [3], in assay [5], in assay [7] and in assay [8] was inactive.

As to `CC1(C)C=Cc2c(O)ccc(C3=Cc4ccc(O)cc4OC3)c2O1` [GLABRENE], the result in assay [1], in assay [2], in assay [3] and in [5] was inactive. For the same compound, the MIC in assay [4] and in assay [6] was 25 µg/mL (≈ 77.6 µM) each time.

Take `CC1(C)C=Cc2c(ccc3c2OC[C@@H](c2ccc(O)cc2O)C3)O1` [GLABRIDIN]: the result in assay [9], in [1], in assay [3], in assay [5] and in [8] was inactive. Moreover, the MIC in assay [4] amounted to 6.25 µg/mL (≈ 19.3 µM); in [10] it was 25 µg/mL (≈ 77.1 µM); in assay [6], 6.25 µg/mL (≈ 19.3 µM).

On to `CC(C)=CCc1cc([C@@H]2CC(=O)c3ccc(O)c(CC=C(C)C)c3O2)ccc1O` [GLABROL], for which the result in [1], in [2], in assay [3] and in assay [5] was inactive. Further, the MIC in assay [4] and in [6] was 1.56 µg/mL (≈ 3.97 µM) throughout.

Regarding `CC(C)=CCc1c(O)ccc([C@@H]2COc3c(ccc4c3C=CC(C)(C)O4)C2)c1O` [HISPAGLABRIDIN A], the outcome in assay [1], in assay [2], in assay [3] and in assay [5] was inactive. The MIC in assay [4] and in [6] was 3.12 µg/mL (≈ 7.95 µM) in each case.

Take `CC1(C)C=Cc2c(ccc([C@@H]3COc4c(ccc5c4C=CC(C)(C)O5)C3)c2O)O1` [HISPAGLABRIDIN B]: the result in assay [1], in [2], in assay [3] and in [5] was inactive. For the same compound, the MIC came to 3.12 µg/mL (≈ 7.99 µM) in assay [4] and 6.25 µg/mL (≈ 16 µM) in [6].

Turning to `CC1(C)C=Cc2c(ccc([C@@H]3COc4cc(O)ccc4C3)c2O)O1` [PHASEOLLINISOFLAVAN], the outcome in assay [1], in assay [2], in [3] and in [5] was inactive. Moreover, the results for the MIC in [6] and in assay [7] were 25 µg/mL (≈ 77.1 µM) and 12.5 µg/mL (≈ 38.5 µM), respectively.

As to `CN[C@@H]1[C@H](O[C@H]2[C@H](O[C@H]3[C@H](O)[C@@H](O)[C@H](N=C(N)N)[C@@H](O)[C@@H]3N=C(N)N)O[C@@H](C)[C@]2(O)C=O)O[C@@H](CO)[C@H](O)[C@H]1O.CN[C@@H]1[C@H](O[C@H]2[C@H](O[C@H]3[C@H](O)[C@@H](O)[C@H](N=C(N)N)[C@@H](O)[C@@H]3N=C(N)N)O[C@@H](C)[C@]2(O)C=O)O[C@@H](CO)[C@H](O)[C@H]1O.O=S(=O)(O)O.O=S(=O)(O)O.O=S(=O)(O)O` [STREPTOMYCIN SULFATE], the minimum inhibitory concentration (MIC) in assay [11] worked out at 50 µg/mL; in assay [9] it was 5 µg/mL; in [12], 2.5 µg/mL; in assay [4] it was 1.25 µg/mL; in [6] it was 5 µg/mL. In addition, in [2], the result was inactive.
